Results on two molecules are retold here after patent US8129427B2, “2-phenylethylamino derivatives as calcium and/or sodium channel modulators” (Newron Pharmaceuticals S.p.A., priority 2005, dated 2012).

In test [1] the test system is TTXs sodium channels. In words: TTXs-sodium channel influx assay (membrane potential fluorescence). To be noted: ND7/23 cells, veratridine 100 μM. The test is classed as cell-based, rat. The protocol: ND7/23 rat dorsal root ganglion-derived cell line endogenously expresses a mixed population of TTXs sodium channels (such as Nav1.3, Nav1.2, Nav1.1, Nav1.6). These cells lack of TTXr sodium channels as shown by the absence of their respective transcripts. ND7/23 cells were grown in DMEM supplemented with 10% FBS and 1 mM sodium piruvate.
The cells were seeded at 50,000 cells/well on 96 poly-L-lysine-coated plates and further incubated for 18-24 h before use.
The Membrane Potential Kit Assay (Molecular Devices), based on a negatively charged fluorescent dye able to monitor changes in membrane potential caused by the sodium influx due to the channel opening, was used for the assay.
Cells were incubated with the dye loading for 30 minutes at 25° C. Then, 100 nM of the toxin Anemonia sulcata (used as enhancer of the channel opener response) alone or in the presence of TTX (as reference standard) or test compound were added for further 15 minutes.
The fluorescence (excitation: 530 nm, emission: 565 nm wavelength) was measured before and after (40-45 s) the automated injection of the sodium channel opener veratridine (100 μM) using a Victor plate reader (Perkin Elmer).
The inhibition curves were calculated from 5 concentrations, each in triplicate, and the IC50 determined using a linear regression analysis.

Test [2] deals with PCP induced deficits in the 5-CSRT task in DBA/2N mice. In words: Cognitive impairment in schizophrenia: PCP-induced deficits in five-choice serial reaction time task. In kind it is in vivo, mouse.
In test [3] the test system is amphetamine-chlordiazepoxide induced increase in locomotor activity in mice. In words: Amphetamine and chlordiazepoxide-induced hyperlocomotion in mice. In kind it is in vivo, mouse. Particulars: test compound 5 mg/kg given twice, FIG. 1. Here is the method:
In this model, mice are treated with a mixture of d-amphetamine plus an anxiolytic dose of the benzodiazepine, chlordiazepoxide (Rushton R, Steinberg H. Combined effects of chlordiazepoxide and d-amphetamine on activity of rats in an unfamiliar environment. Nature 1966; 211:1312-3; R. Arban, G. Maraia, K. Brackenborough, L. Winyard, A. Wilson, P. Gerrard, C. Large. Evaluation of the effects of lamotrigine, valproate and carbamazepine in a rodent model of mania Behavioural Brain Research, 158: 123-132). The model has been claimed to mimic some aspects of mania in bipolar disorder. Importantly, the hyperactivity induced by the mixture of d-amphetamine and chlordiazepoxide could be prevented by prior administration of the established mood stabilizer, lithium, as well as other mood stabilizers drugs (e.g. magnesium valproate and carbamazepine). […]
Amphetamine (AMP) (2.5 mg/kg) plus chlordiazepoxide hydrochloride (CDZ) (3 mg/kg/ip) were administered to male Albino Swiss mice (25-32 g) in a volume of 10 ml/kg. The locomotor activity was recorded using Opto-M3 System (Columbus Instruments) which is multi-channel activity monitor. […] The locomotor activity (ambulation and total activity count) was evaluated for 30 min. […]
Statistical analysis: the data were evaluated by an analysis of variance (ANOVA), followed, when appropriate, by individual comparison with the control using Dunnett's test. […]

The target of test [4] is recombinant human N-type channels, h α1B (hCav2.2)+β1b+α2δ-1 subunits (Homo sapiens, UniProt Q00975). In words: Patch clamp studies of calcium currents inhibition in HEK293 cells. Particulars: tonic block, preconditioning −50/−55 mV (half maximal steady-state inactivated condition); read-out: IC50 (Vhalf). The test is classed as cell-based. The protocol: Functional inhibition of the N-type Ca currents was studied using whole cell patch clamp methods (Hamill O. P., Marty A., Neher E., Sakmann B., Sigworth F. J. Pflugers Arch. (1981) 391: 85-100) on HEK293 cells expressing recombinant human N-type channels, obtained after transient transfection of h α1B (hCav2.2)+β1b+α2δ-1 subunits.
recombinant human N-type channels, h α1B (hCav2.2)+β1b+α2δ-1 subunits, sequence (Q00975 whole entry): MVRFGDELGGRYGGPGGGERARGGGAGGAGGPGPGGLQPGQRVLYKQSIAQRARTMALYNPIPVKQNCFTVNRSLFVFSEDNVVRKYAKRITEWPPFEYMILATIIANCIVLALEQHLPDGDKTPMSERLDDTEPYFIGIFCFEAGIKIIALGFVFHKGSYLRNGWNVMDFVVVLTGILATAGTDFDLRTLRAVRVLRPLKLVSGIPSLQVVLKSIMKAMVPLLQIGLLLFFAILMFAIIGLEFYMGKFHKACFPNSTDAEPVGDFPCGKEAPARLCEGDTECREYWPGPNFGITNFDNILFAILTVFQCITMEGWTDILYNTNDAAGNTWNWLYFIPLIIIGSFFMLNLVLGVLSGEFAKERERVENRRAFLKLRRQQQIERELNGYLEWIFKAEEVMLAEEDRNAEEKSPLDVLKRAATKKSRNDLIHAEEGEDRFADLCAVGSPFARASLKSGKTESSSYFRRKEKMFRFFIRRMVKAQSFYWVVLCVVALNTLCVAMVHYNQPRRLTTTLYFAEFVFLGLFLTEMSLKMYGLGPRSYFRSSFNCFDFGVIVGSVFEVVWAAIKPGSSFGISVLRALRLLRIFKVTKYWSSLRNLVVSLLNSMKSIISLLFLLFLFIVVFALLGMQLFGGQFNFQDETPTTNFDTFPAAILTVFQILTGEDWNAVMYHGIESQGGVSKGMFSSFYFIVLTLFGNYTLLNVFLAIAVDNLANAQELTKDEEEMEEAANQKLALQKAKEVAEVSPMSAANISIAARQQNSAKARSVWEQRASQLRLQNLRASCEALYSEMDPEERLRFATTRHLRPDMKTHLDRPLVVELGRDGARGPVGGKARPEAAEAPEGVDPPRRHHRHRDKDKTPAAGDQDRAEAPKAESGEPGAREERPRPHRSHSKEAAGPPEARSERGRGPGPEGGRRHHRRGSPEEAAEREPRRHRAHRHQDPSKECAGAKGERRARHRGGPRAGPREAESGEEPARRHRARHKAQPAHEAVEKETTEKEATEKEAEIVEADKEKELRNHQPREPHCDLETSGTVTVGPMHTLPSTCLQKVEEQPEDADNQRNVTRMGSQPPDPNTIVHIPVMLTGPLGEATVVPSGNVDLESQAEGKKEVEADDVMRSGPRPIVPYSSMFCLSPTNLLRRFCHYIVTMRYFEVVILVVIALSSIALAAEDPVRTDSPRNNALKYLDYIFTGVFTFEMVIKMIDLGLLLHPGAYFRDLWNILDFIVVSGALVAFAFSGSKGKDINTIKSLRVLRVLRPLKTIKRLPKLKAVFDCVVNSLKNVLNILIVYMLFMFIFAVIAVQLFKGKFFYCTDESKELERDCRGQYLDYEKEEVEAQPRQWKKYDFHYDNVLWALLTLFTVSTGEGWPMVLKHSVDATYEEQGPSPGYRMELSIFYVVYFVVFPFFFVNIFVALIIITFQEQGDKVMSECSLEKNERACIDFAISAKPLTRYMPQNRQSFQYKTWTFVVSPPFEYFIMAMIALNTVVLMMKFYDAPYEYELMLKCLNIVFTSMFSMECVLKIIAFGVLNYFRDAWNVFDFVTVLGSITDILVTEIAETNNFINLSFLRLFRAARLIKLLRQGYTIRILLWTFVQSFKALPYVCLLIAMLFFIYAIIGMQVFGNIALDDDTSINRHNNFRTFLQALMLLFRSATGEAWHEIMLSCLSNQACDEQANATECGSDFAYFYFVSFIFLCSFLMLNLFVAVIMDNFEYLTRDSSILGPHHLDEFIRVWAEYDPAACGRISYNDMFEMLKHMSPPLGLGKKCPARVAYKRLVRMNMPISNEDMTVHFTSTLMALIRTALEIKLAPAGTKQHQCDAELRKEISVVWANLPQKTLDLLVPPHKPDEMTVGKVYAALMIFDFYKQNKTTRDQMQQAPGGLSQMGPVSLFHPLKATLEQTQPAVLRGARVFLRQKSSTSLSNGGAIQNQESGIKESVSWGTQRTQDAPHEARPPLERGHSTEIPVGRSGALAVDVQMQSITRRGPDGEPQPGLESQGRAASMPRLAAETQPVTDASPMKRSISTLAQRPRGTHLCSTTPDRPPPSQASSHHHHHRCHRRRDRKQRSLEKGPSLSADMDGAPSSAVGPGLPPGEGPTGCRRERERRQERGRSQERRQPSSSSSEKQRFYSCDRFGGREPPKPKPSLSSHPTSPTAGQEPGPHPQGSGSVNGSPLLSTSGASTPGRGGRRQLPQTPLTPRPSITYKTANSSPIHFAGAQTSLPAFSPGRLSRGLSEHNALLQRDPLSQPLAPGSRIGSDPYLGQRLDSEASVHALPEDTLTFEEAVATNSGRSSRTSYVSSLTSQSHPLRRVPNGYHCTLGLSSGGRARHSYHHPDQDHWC
recombinant human N-type channels, h α1B (hCav2.2)+β1b+α2δ-1 subunits, sequence (Q02641 whole entry partner): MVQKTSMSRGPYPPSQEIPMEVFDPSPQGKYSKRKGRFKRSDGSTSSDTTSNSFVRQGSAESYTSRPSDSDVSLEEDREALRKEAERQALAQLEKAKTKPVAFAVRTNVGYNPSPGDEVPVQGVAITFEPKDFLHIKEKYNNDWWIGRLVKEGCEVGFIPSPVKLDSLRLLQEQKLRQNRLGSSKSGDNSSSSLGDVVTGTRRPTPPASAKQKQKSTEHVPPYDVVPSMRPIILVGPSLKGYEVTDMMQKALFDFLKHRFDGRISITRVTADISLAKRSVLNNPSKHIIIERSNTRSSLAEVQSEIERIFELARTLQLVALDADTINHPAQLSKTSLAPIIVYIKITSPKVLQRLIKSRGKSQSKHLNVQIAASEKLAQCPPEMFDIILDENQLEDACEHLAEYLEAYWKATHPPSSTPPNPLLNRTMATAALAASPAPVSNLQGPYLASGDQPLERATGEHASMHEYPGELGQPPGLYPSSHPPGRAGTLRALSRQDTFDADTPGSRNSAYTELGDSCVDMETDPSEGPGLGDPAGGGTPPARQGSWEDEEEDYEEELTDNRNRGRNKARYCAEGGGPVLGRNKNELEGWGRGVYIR
recombinant human N-type channels, h α1B (hCav2.2)+β1b+α2δ-1 subunits, sequence (P54289 25-956 partner limits assumed): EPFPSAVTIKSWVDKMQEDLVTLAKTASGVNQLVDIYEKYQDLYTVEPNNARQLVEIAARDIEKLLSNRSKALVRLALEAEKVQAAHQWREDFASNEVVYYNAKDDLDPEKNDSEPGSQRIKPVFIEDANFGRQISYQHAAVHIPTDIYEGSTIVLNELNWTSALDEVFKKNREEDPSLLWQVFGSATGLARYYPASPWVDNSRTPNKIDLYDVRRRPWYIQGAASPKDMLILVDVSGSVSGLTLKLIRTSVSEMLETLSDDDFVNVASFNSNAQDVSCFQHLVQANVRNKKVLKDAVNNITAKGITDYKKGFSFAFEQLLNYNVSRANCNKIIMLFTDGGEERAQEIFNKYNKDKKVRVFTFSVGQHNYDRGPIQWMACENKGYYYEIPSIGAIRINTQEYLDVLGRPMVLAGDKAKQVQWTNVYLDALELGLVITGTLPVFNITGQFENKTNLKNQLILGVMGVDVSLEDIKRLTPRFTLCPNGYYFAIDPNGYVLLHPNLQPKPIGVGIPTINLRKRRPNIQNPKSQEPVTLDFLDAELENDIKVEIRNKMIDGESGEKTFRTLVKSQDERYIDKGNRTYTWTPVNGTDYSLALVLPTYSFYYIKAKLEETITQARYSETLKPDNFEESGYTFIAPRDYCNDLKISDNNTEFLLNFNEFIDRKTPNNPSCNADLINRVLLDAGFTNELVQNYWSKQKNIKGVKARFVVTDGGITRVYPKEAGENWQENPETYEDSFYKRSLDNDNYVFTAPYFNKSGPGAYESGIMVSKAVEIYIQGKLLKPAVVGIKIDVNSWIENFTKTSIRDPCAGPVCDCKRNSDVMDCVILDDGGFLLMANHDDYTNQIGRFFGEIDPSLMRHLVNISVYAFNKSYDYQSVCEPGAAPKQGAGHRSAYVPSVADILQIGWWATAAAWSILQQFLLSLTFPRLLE
recombinant human N-type channels, h α1B (hCav2.2)+β1b+α2δ-1 subunits, sequence (P54289 957-1103 partner limits assumed): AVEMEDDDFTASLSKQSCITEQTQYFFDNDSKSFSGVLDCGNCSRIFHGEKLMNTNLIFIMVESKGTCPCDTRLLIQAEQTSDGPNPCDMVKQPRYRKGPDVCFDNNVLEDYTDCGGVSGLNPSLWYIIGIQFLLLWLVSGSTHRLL
Membrane currents were recorded and filtered at 5 kHz with an Axon Axopatch 200B amplifier and digitized with an Axon Digidata 1322A (Axon Instruments, CA, USA). Voltage clamping of membrane potentials and data acquisition were controlled online with Axon pClamp8 software. Measuring and reference electrodes were AgCl—Ag electrodes. Cells had initial seal resistances of >1 GΩ and access resistances of 4.2±0.2 MΩ. Cells were continuously superfused with extracellular solutions using a Biologic RSC-200.
For calcium currents recording the control bath solution contained (mM): Choline chloride (70), MgCl2 (1), BaCl2 (20), TEA.Cl (50), Hepes (10), Glucose (10). Internal pipette solution consisted of (mM): CsCl (140), EGTA (10), MgCl2 (2), Hepes (10), MgATP (1), GTP Tris (0.3).
Compounds were dissolved as 20 mM stock solutions in DMSO and then diluted to the final concentration in the external solutions.
A two-step protocol was used to determine the voltage dependence of the block:
N-type current was activated by a 600 ms step pulse to +10 mV (test pulse) from a 5000 ms preconditioning potential of −110 mV (resting condition) or −50/−55 mV (half maximal steady-state inactivated condition), respectively.
The amplitude of calcium current peaks evoked by the respective test pulses at a frequency of 0.06 Hz were measured before and after exposure to the test substance. Tonic block of currents was calculated as the difference between the peak calcium current measured at the end of a stabilization period in the control external bath solution and peak currents measured at the end of test substance perfusion period (when steady state is reached) divided by control peaks. […]
(Patch clamp records ionic current or voltage across a cell membrane.)

In test [5] the target is N-type calcium channels (Homo sapiens, UniProt Q00975). In words: N-type calcium channel influx assay (fluorescence). In kind it is cell-based. Particulars: differentiated IMR32 cells, nifedipine 1 μM, 100 mM KCl depolarization; read-out: IC50.
N-type calcium channels, sequence (Q00975 whole entry): as the sequence (Q00975 whole entry) above
N-type calcium channels, sequence (Q02641 whole entry partner): as the sequence (Q02641 whole entry partner) above
N-type calcium channels, sequence (P54289 25-956 partner limits assumed): as the sequence (P54289 25-956 partner limits assumed) above
N-type calcium channels, sequence (P54289 957-1103 partner limits assumed): as the sequence (P54289 957-1103 partner limits assumed) above
In test [6] the test system is L-type calcium channels. In kind it is cell-based, mouse. To be noted: AtT20/D16v-F2 cells, ω-conotoxin 1 μM, 100 mM KCl depolarization.
Setting [7] is: 10 mg/Kg i.p. + PCP (1.5 mg/kg).

The IC50 is the concentration that gives 50% inhibition. Take `CCCCOc1cccc(CCN(CC(=O)N(C)C)CC2CCOC2)c1.Cl` (racemic) [Example 96, 2-[[2-(3-Butoxy-phenyl)-ethyl]-(tetrahydrofuran-3-ylmethyl)amino]-N,N-dimethyl-acetamide hydrochloride]: half-maximal inhibition in test [1] (IC50) required 2 µM. The “N of anticipatory resposnses” value is listed as 3.7 ± 1.6 in test [2] (setting [7]) and 3.3 ± 0.7 in test [2] (10 mg/Kg i.p. + vehicle). The entries for the “N of perseverative responses” value in test [2] (setting [7]) and in test [2] (10 mg/Kg i.p. + vehicle) were 15.7 ± 3.1 and 20.9 ± 1.3, respectively. For the same molecule, the “effect on amphetamine-chlordiazepoxide induced increase in locomotor activity” value in test [3] is “preventing the amphetamine-chlordiazepoxide induced increase in locomotor activity”.
As for `C[C@H](NCc1ccc(OCc2ccccc2F)cc1)C(N)=O` [ralfinamide, (S)-(+)-2-[4-(2-fluoro-benzyloxy)-benzylamino]-propanamide, reference compound], the IC50 worked out at 9.5 µM in test [1], 15 µM in test [4], 23 µM in test [5] and 26 µM in test [6].
